Assay [1] addresses T1, AGTM-β-galactosidase fusion protein in CHO cells (Homo sapiens, UniProt P16455, A127T/C150N/C62A/G131K/G132T/K125A/M134L/N157G/Q115S/Q116H/R128A/R135S/S151I/S152N/S159E).
T1 construct: a truncation after codon 182 into the mutant AGT gene; expressed in transfected cells; host or cells: CHO cells, transient expression
T1 sequence (P16455 1-182 C62A/Q115S/Q116H/K125A/A127T/R128A/G131K/G132T/M134L/R135S/C150N/S151I/S152N/N157G/S159E): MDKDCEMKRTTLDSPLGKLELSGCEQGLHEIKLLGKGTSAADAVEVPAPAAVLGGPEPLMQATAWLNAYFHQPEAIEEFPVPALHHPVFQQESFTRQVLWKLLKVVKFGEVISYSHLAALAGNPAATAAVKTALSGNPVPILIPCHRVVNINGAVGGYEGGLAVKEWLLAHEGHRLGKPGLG
As to the kind of experiment: Intracellular competition of two AGT mutants with two substrates in CHO cells. Type of assay: cell-based. The following applies: 5 μM CPTG 10 min, then 5 μM BG-AcFL 20 min. The source says: (§1) The mutant AGTM (Example 47) is amplified with the suitable primers and cloned between the NheI and BglII sites of the vector pEGFP-Nuc. The yeast β-galactosidase gene is likewise amplified and subcloned into this vector via BglII/BamHI to result in a vector with an AGT-β-Gal fusion gene. The wild type hAGT gene is amplified and cloned via NheI/BglII into pEGFP-Nuc to result in an AGT-NLS3 fusion gene coding for the mutation Gly160Trp.

Assay [2] concerns the target T2, AGT (Gly160Trp)-NLS3 fusion protein in the nucleus of CHO cells (Homo sapiens, UniProt P16455, G160W).
T2 construct: expressed in transfected cells; host or cells: CHO cells, transient expression
T2 sequence (P16455 1-207 G160W): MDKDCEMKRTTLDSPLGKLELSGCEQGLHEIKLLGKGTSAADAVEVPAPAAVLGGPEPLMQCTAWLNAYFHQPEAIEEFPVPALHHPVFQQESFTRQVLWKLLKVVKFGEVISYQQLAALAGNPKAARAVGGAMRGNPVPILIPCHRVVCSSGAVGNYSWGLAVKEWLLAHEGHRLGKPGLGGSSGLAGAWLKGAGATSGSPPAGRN
The description is as above. Type of assay: cell-based. The note with it: 5 μM CPTG 10 min, then 5 μM BG-AcFL 20 min.
Source text: as §1

For assay [3], the target named is T3, wild type hAGT (Homo sapiens, UniProt P16455).
T3 sequence (P16455 1-207): T2 sequence (P16455 1-207 G160W) with W160G
The assay can be described thus: In vitro competition between CPTG and BGBT, separate incubation. In kind it is biochemical. The following applies: CPTG 20 times higher than BGBT (0.5 μM), after 45 minutes. As to the method:
(§2) The reaction is quenched by addition of 2×SDS buffer and placed 2 min at 95° C. Samples are run on a 12% acrylamide gel and analysed by Western blotting.

The target of assay [4] is T4, Mutant AGT (AGTM) (Homo sapiens, UniProt P16455, A127T/C150N/C62A/G131K/G132T/K125A/M134L/N157G/Q115S/Q116H/R128A/R135S/S151I/S152N/S159E).
T4 construct: a truncation after codon 182 into the mutant AGT gene
T4 sequence (P16455 1-182 C62A/Q115S/Q116H/K125A/A127T/R128A/G131K/G132T/M134L/R135S/C150N/S151I/S152N/N157G/S159E): T1 sequence (P16455 1-182 C62A/Q115S/Q116H/K125A/A127T/R128A/G131K/G132T/M134L/R135S/C150N/S151I/S152N/N157G/S159E)
Described as above. Type of assay: biochemical. The following applies: CPTG 20 times higher than BGBT (0.5 μM), after 45 minutes. The method, then: as §2

In assay [5] the target is T5, wild type hAGT-GST fusion protein (Homo sapiens, UniProt P16455).
T5 sequence (P16455 1-207): T2 sequence (P16455 1-207 G160W) with W160G
As to the kind of experiment: In vitro competition CPTG/BGBT, both proteins in one solution. The note with it: both substrates CPTG and BGBT 5 μM, 30 min. In kind it is biochemical. As to the method: (§3) Detection of the AGTM-BGBT complex with luminescent peroxidase substrate is as described for FIG. 2.
as §2
(§4) In comparing the reaction of AGTM and wild type hAGT, a high specificity of CPTG toward hAGT is observed. At the same concentration (both substrates 5 μM final concentration), 95% of wild type AGT has reacted with CPTG versus only 5% of AGTM.

Assay [6] addresses T6, AGTM-6×His fusion protein (Homo sapiens, UniProt P16455, A127T/C150N/C62A/G131K/G132T/K125A/M134L/N157G/Q115S/Q116H/R128A/R135S/S151I/S152N/S159E).
T6 construct: a truncation after codon 182 into the mutant AGT gene; 6xHis
T6 sequence (P16455 1-182 C62A/Q115S/Q116H/K125A/A127T/R128A/G131K/G132T/M134L/R135S/C150N/S151I/S152N/N157G/S159E): T1 sequence (P16455 1-182 C62A/Q115S/Q116H/K125A/A127T/R128A/G131K/G132T/M134L/R135S/C150N/S151I/S152N/N157G/S159E)
The description is as above. Type of assay: biochemical. The following applies: both substrates CPTG and BGBT 5 μM, 30 min. The method, then: as §3, §2, §4

In assay [7] the target is T7, AGTM (mutant AGT) (Homo sapiens, UniProt P16455, A127T/C150N/C62A/G131K/G132T/K125A/M134L/N157G/Q115S/Q116H/R128A/R135S/S151I/S152N/S159E).
T7 construct: a truncation after codon 182 into the mutant AGT gene; 6xHis
T7 sequence (P16455 1-182 C62A/Q115S/Q116H/K125A/A127T/R128A/G131K/G132T/M134L/R135S/C150N/S151I/S152N/N157G/S159E): T1 sequence (P16455 1-182 C62A/Q115S/Q116H/K125A/A127T/R128A/G131K/G132T/M134L/R135S/C150N/S151I/S152N/N157G/S159E)
The assay can be described thus: Reaction rate of AGT mutant with substrate, BGBT capture and Western blot. Type of assay: biochemical. The source says:
Proteins are then denatured with SDS and heat. Samples are subjected to SDS-PAGE and Western blot analysis. The intensity of the corresponding bands is detected by chemiluminescence stain.
A second AGT mutant (“AGTM”) containing the mutations Cys62Ala, Gln115Ser, Gln116His, Lys125Ala, Ala127Thr, Arg128Ala, Gly131Lys, Gly132Thr, Met134Leu, Arg135Ser, Cys150Asn, Ser15111e, Ser152Asn, Asn157Gly, Ser159G1u, and truncation at 182 is derived from the mentioned above AGT mutant by subsequent introduction of further mutations and a truncation after codon 182 into the mutant AGT gene. […] The GST-fusion protein is expressed and purified as well.
AGTM (1 μM final concentration) is incubated with N^9-cyclopentyl-O^6-(4-bromothiophen-2-yl)-guanine (18, CPTG) (10 μM in 1% DMSO final concentration) in reaction buffer (50 mM HEPES, 1 mM DTT, […] BSA, pH 7.3) at 24° C. […] The reaction is quenched by addition of SDS-Laemmli buffer and heating for 2 min at 95° C. Samples are run on a 12% acrylamide gel and analysed by Western blotting.
A general note: In western blotting, separated proteins are transferred to a membrane and probed.

Assay [8] concerns AGTM or AGT21. As to the kind of experiment: One-pot labeling and separation with streptavidin magnetic beads. Type of assay: biochemical, human. The following applies: 5 μM protein, 10 μM substrate, 1 hour; fluorescence 490/535 nm in supernatant. The method, then:
In other experiments, purified AGTM or AGT21 (Example 47) in a protein concentration of 5 μM are incubated with 10 μM N-[4-(2-amino-8-(3-(N-(+)-biotinyl-6-aminocaproyl)-aminopropyl)-9H-purin-6-yloxymethyl)-benzyl]-fluoresceine-5(6)-carboxamide (52, Example 34) in 50 μl buffer containing 100 mM NaCl, 50 mM Tris, pH 8.0, 0.1% Tween, 1 mM DTT at room temperature. After 1 hour, streptavidin coated magnetic beads (Magnabind Streptavidin, Pierce) with a capacity to bind at least 1 nmol biotin are added and the incubation time and magnetic separation from the supernatant containing fluorescein-labeled protein are done according to manufacturer's instructions for use. The amount of protein in solution before and after the treatment with magnetic beads is determined by Bradford assay. The loss of protein is less than 30%. The labeling efficiency is determined by measuring the fluorescence intensity using a Victor2 microplate reader (Perkin Elmer) at 490 nm excitation and 535 nm emission in the supernatant after removal of the unreacted substrate and released product by binding to the beads and magnetic separation. The labeling efficiency is at least 20%.

Assay [9] has as its target T8, AGTM (Homo sapiens, UniProt P16455, A127T/C150N/C62A/G131K/G132T/K125A/M134L/N157G/Q115S/Q116H/R128A/R135S/S151I/S152N/S159E).
T8 construct: a truncation after codon 182 into the mutant AGT gene
T8 sequence (P16455 1-182 C62A/Q115S/Q116H/K125A/A127T/R128A/G131K/G132T/M134L/R135S/C150N/S151I/S152N/N157G/S159E): T1 sequence (P16455 1-182 C62A/Q115S/Q116H/K125A/A127T/R128A/G131K/G132T/M134L/R135S/C150N/S151I/S152N/N157G/S159E)
The assay can be described thus: Labeling with substrate pre-immobilized on streptavidin magnetic beads. Type of assay: biochemical. The note with it: AGTM 50 μM, 20 h. As to the method:
In a further experiment, wherein the substrate is pre-immobilized, streptavidin coated magnetic beads (Magnabind Streptavidin, Pierce) with a capacity to bind […] biotin per ml are incubated with twofold excess of compound 52 (as above) in buffer containing 100 mM NaCl, 50 mM Tris, pH 8.0, 0.1% Tween at room temperature to immobilize the substrate to the beads. The incubation time and magnetic separation from the supernatant are done according to manufacturer's instructions for use. Unbound substrate is removed with buffer by 3 subsequent washing steps. AGTM at a protein concentration of 50 μM is incubated with these substrate-modified beads in 50 μl buffer containing 100 mM NaCl, 50 mM Tris, pH 8.0, 0.1% Tween, 1 mM DTT at room temperature. After 20 h, the beads are separated from the supernatant containing fluorescein-labeled protein. The amount of protein in solution before and after the treatment with magnetic beads is determined by Bradford assay.

Substitutions are numbered along the chain they refer to.

Consider “N^9-Cyclopentyl-O^6-(4-bromothiophen-2-yl)-guanine [CPTG]”, for which the “reaction with CPTG inside cells” value in assay [1] is “does not react with CPTG”; in assay [2] it was “efficiently reacts with CPTG”. The “wild type AGT quenched by CPTG” value in assay [3] was found to be 95%. The “mutant AGTM still active” value in assay [4] is given as 87%. Moreover, the “wild type AGT reacted with CPTG” value in assay [5] is given as 95%. For the same substance, in assay [6], the “AGTM reacted with CPTG” value amounted to 5%. In addition, the “activity ratio of the two substrates BGBT/CPTG” value in [7] (AGTM) was “at least 25”. In assay [7] (AGTM 1 μM, substrate 10 μM, 24° C., pH 7.3), the “second order rate constant k2” value is 92.5 s⁻¹ M⁻¹.
With “N-[4-(2-Amino-8-(3-(N-(+)-biotinyl-6-aminocaproyl)-aminopropyl)-9H-purin-6-yloxymethyl)-benzyl]-fluoresceine-5(6)-carboxamide [compound 52]”, the labeling efficiency entry in assay [8] and in assay [9] was “at least 20%” throughout. In addition, the loss of protein entry in assay [9] (Bradford assay) is on record as “less than 30%”.

The record behind these values is US8163479B2, “Specific substrates for O6-alkylguanine-DNA alkyltransferase” (Ecole Polytechnique Federale de Lausanne, priority 2004, dated 2012).
